# Article PMC4754628 (Scientific Reports, 2016)
# Legend:
# Kv11.1-3.1 [1] = assay: Quantitative Western blot of Kv11.1-3.1 expression and trafficking (FG/CG bands) after overnight drug treatment; assay type: cell-based, human; conditions: for Kv11.1-3.1 expression and trafficking rescue (FG band) by selective inhibitors of ALLN targets / Trafficking Rescue?: Western blot; for Kv11.1-3.1 expression and trafficking rescue (FG band) by selective inhibitors of ALLN targets: Kv11.1-3.1 cells, single agents or cocktails; for Trafficking Rescue?: Literature compounds screened for Kv11.1-3.1 trafficking rescue
# Description: HEK 293 cells were cultured at 37 °C (5% CO2) in Glutamax® Dulbecco’s modified Eagle’s Medium/Ham’s F-12 (Life Technologies, Grand Island, NY) supplemented with 1x Non-essential amino acids (Life Technologies, Grand Island, NY), 1x Penicillin/Streptomycin (Life Technologies, Grand Island, NY) and 10% fetal bovine serum (Sigma Aldrich, Saint Louis, MO). For pharmacological treatments, drugs were dissolved in DMSO and added to media at DMSO final concentrations < 0.2%. Cells were incubated in drug-containing media for 16–20 hours prior to assays.
# Cells were washed with ice-cold PBS, harvested in ice-cold PBS, and pelleted by centrifugation at 500 g for 5 minutes. Cell pellets were resuspended with Radioimmunoprecipitation assay (RIPA) buffer (Sigma Aldrich, Saint Louis, MO) and rotated at 4 °C for 1 hour. Lysates were cleared by centrifugation at 16,000 g for 10 minutes and supernatants were analyzed for total protein concentration using a BCA kit (Pierce, Rockford, Illinois). […] Proteins were transferred onto 0.45 μm nitrocellulose membranes and incubated for 1hr in Odyssey® PBS blocking buffer (Li-Cor Biosciences, Lincoln, NE). Membranes were probed with anti-HA (1:5,000, GeneTex, Irvine, CA) and anti-NaK-ATPase (1:2,500, GeneTex, Irvine, CA) primary antibodies in Odyssey® PBS blocking buffer overnight at 4 °C. Anti-HA and anti-NaK-ATPase signals were detected using IRdye 800 donkey anti-rabbit (1:20,000, Li-Cor Biosciences, Lincoln, NE) and IRdye 680 donkey anti-mouse (1:20,000, Li-Cor Biosciences), respectively. The Li-Cor Odyssey® imaging system and software was used for antibody detection and quantification.
# Kv11.1-3.1 [2] = assay: Quantitative immunofluorescence / high content imaging of Kv11.1-3.1 (sub-cellular and cell surface); assay type: cell-based, human
# Description: (§1) Stable HEK 293 cell lines expressing either the full-length (1A) or deletion Kv11.1 (3.1) channel variant were plated onto 24 well ibiTreat® plates (ibidi, Martinsried, Germany) and grown until 80–90% confluent. For sub-cellular co-localization studies, cells were fixed with 4% paraformaldehyde in PBS for 15 minutes. Cells were simultaneously permeabilized, blocked, and quenched for background fluorescence by incubation in a PBS solution containing 0.1% Triton X-100, 10% normal goat serum, and 0.75% glycine for 15 minutes. Cells were probed with primary antibodies: anti-extracellular loop hERG (1:1000, Sigma Aldrich, Saint Louis, MO), anti-calnexin (1:1000, Abcam, Cambridge, MA), anti-58K Golgi protein (1:200, Abcam), anti-20s proteasome β1 (1:200, Santa Cruz Biotechnology, Dallas, TX). […]. Cell surface labeling with anti-hERG antibody was performed as described above. Cell images were captured with the Operetta® high content imaging system and quantified with Columbus® image analysis suite (both PerkinElmer, Waltham, MA).
# (§2) Electrophysisology data analysis was performed using Axograph X® (Axograph, Berkley, CA) All data is presented as mean ± SEM unless specified. Unpaired T-tests, ANOVA, and subsequent Bonferroni corrections were completed using Prism (Graphpad, La Jolla, CA). Microscopy data was analyzed with linear mixed models with fixed effects for the treatment variables with a random intercept by replicate/well – hERG and RFP levels were log2-transformed prior to analysis. P values < 0.05 were accepted as significant.
# Kv11.1-1A [3] = assay: Quantitative immunofluorescence / high content imaging of Kv11.1-1A (sub-cellular and cell surface); assay type: cell-based, human
# Description: as §1
# as §2, with “Unpaired T-tests, ANOVA, and subsequent Bonferroni corrections were completed using Prism (Graphpad, La Jolla, CA).” left out, “P values < 0.05 were accepted as significant.” left out
# Kv11.1-3.1 [4] = assay: Co-immunoprecipitation of HA-tagged Kv11.1-3.1 probed for ubiquitin; assay type: cell-based, human; conditions: bortezomib 16 hours vs DMSO
# Description: (§3) Dynabeads Protein G® (Life Technologies, Grand Island, NY) were prepared according to the manufacturer’s instructions and incubated with HA.11 anti-HA antibody (BioLegend, San Diego, CA) for 30 minutes and then fixed with BS[3] crosslinking reagent (ThermoFischer Scientific, Waltham, MA) to prevent antibody dissociation. Equal amounts of cell lysates from stably expressing Kv11.1 cell lines were prepared as before and then incubated with the prepared beads overnight at 4 °C. Beads were washed and proteins were eluted per the manufacturer’s instructions and visualized via SDS-PAGE. Membranes were probed with the antibodies described previously and anti-ubiquitin (1:1000, Abcam, Cambridge, MA). Antibody detection was performed as before.
# Kv11.1-1A [5] = assay: Co-immunoprecipitation of HA-tagged Kv11.1-1A probed for ubiquitin; assay type: cell-based, human; conditions: bortezomib 16 hours vs DMSO
# Description: as §3
# Kv11.1-1A [6] = conditions: 1A expressing cells
# Kv11.1-3.1 [7] = molecular target: T1, Kv11.1-3.1 (Homo sapiens, UniProt Q12809)
# Kv11.1-3.1 [8] = molecular target: T1, Kv11.1-3.1; conditions: treated Kv11.1-3.1 cells, E4031 or DMSO controls, n = 16
# hERG LQT2 mutants = conditions: some LQT2 mutants; cited from earlier work
# T1 sequence (Q12809 1-1063 isoform Q12809-7): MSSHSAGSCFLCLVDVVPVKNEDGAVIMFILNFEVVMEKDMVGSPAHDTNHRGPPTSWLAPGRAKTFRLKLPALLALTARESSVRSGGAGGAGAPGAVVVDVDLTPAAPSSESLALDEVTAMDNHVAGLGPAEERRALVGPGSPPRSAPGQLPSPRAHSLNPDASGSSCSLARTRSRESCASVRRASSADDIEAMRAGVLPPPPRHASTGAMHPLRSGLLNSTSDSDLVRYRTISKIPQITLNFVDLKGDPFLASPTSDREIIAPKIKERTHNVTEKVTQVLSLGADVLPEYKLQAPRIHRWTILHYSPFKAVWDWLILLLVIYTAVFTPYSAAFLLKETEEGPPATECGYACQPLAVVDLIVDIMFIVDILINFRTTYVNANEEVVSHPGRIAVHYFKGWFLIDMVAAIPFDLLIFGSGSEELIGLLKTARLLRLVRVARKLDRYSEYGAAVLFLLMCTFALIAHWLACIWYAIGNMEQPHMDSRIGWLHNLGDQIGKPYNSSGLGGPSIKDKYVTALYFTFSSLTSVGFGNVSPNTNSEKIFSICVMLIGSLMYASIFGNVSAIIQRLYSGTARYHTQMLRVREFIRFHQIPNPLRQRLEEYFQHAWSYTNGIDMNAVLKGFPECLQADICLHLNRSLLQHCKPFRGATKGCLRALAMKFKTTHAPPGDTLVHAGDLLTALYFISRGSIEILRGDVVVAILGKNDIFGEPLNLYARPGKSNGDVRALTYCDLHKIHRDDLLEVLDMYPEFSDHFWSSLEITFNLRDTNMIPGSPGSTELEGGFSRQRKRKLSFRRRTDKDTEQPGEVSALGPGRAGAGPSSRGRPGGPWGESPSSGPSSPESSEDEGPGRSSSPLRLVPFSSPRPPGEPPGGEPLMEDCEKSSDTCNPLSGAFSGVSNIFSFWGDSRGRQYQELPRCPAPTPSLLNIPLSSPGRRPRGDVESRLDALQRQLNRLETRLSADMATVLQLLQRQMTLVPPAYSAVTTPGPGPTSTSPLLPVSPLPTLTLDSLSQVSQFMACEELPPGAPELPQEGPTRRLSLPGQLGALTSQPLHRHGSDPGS
smiles,measurement,setting,value
CCCNC(=O)[C@H]1O[C@@H]1C(=O)N[C@H](C(=O)N1CCC[C@H]1C(=O)O)[C@@H](C)CC [CA 078],Kv11.1-3.1 expression and trafficking rescue (FG band) by selective inhibitors of ALLN targets,Kv11.1-3.1 [1],only bortezomib was effective
C[N+](C)(C)CCOC(N)=O.[Cl-] [Carbamoylcholine Chloride],Trafficking Rescue?,Kv11.1-3.1 [1],No
COc1cc(N)c(Cl)cc1C(=O)NC1CCN(CCCOc2ccc(F)cc2)CC1OC (stereo not shown) [Cisapride],Trafficking Rescue?,Kv11.1-3.1 [1],No
COC(=O)Nc1nc2ccc(C(=O)c3cccs3)cc2[nH]1 [Nocodazole],Trafficking Rescue?,Kv11.1-3.1 [1],No
O=C(O)/C(S)=C/c1ccc(I)cc1 [PD 150606],Kv11.1-3.1 expression and trafficking rescue (FG band) by selective inhibitors of ALLN targets,Kv11.1-3.1 [1],only bortezomib was effective
O=C(O)c1ccccc1Nc1ccc(CCc2ccc(Cl)c(Cl)c2)cc1 [PD-118057],Trafficking Rescue?,Kv11.1-3.1 [1],No
CCc1ccccc1NC(=O)CSC(=O)NNC(=O)[C@H](Cc1c[nH]c2ccccc12)NC(=O)OC(C)(C)C [SID 26681509],Kv11.1-3.1 expression and trafficking rescue (FG band) by selective inhibitors of ALLN targets,Kv11.1-3.1 [1],only bortezomib was effective
N#Cc1ccc(COC[C@H]2O[C@@H](n3c(NCc4ccc(Cl)c(Cl)c4)nc4c(N)ncnc43)[C@H](O)[C@@H]2O)cc1 [VER-155008],Trafficking Rescue?,Kv11.1-3.1 [1],No
CC(C)C[C@H](NC(=O)[C@H](Cc1ccccc1)NC(=O)c1cnccn1)B(O)O [bortezomib],increase of overall channel expression (Total hERG/NaK ATPase),"Kv11.1-3.1 [1]; Kv11.1-3.1 HEK 293 cells, bortezomib 10 nM",6 fold
same,trafficking efficiency (FG/Total hERG),"Kv11.1-3.1 [1]; Kv11.1-3.1 HEK 293 cells, bortezomib 10 nM, n = 4",25 ± 2%
same,Kv11.1-3.1 expression and trafficking rescue (FG band) by selective inhibitors of ALLN targets,Kv11.1-3.1 [1],effective
same,elevation of steady-state Kv11.1-3.1 protein level (RFP-normalized fluorescence),"Kv11.1-3.1 [2]; Kv11.1-3.1 cells cultured with drug, n = 3",~3 fold
same,Kv11.1-3.1 proteasome domain expression increase,Kv11.1-3.1 [2]; colocalization domain,not found to be significant
same,"Kv11.1-3.1 expression in cytoplasm, nuclear regions, ER and Golgi",Kv11.1-3.1 [2]; subcellular segmentation and colocalization domains,significantly increased
same,factor of increase of surface Kv11.1-3.1/RFP ratio,Kv11.1-3.1 [2]; vs untreated Kv11.1-3.1,2
same,elevation of Kv11.1 1A protein level (RFP-normalized fluorescence),Kv11.1-1A [3]; Kv11.1-1A cells cultured with drug,modest elevation
same,"ratio of surface Kv11.1-1A/RFP, slope m of linear regression","Kv11.1-1A [3]; single cells, untreated m = 0.34",0.40
same,ubiquitin signal of immunoprecipitated Kv11.1-3.1 channels,Kv11.1-3.1 [4],decrease in ubiquitin signal
same,ubiquitin signal of immunoprecipitated 1A channels,Kv11.1-1A [5],accumulation of ubiquitin signal
same,Kv11.1-1A band changes on Western blot,Kv11.1-1A [6],only increasing 1A CG expression
same,cell membrane capacitance normalized peak tail current,"Kv11.1-3.1 [7]; bortezomib 10 nM treated Kv11.1-3.1 cells, n = 8",75.93 ± 11.84 pA/pF
same,effect on Kv11.1-3.1 deactivation rate kinetics (τ deactivation),"Kv11.1-3.1 [7]; treated Kv11.1-3.1 cells vs controls, n = 3",no effect
same,signal to background ratio in thallium flux assay,Kv11.1-3.1 [8],roughly 4 fold
CC(=O)N[C@@H](CSC(=O)[C@]1([C@@H](O)C(C)C)NC(=O)[C@H](C)[C@@H]1O)C(=O)O [lactacystin],hERG expression in LQT2 mutants,hERG LQT2 mutants,increase hERG expression
same,trafficking rescue in LQT2 mutants,hERG LQT2 mutants,trafficking was unable to be rescued
